According to patent publication US8207329B2, “Synthesis of chlorins and phorbines with enhanced red spectral features” (North Carolina State University, priority 2005, dated 2012):
Several values for one entry are separate records, joined by “and”; a condition that tells them apart may be missing. Identical values can stand only once. Like-named read-outs stand apart in the source and are kept apart here. Values belong to the compound of their own block, whether it stands above or below them.

Assays:
[1] = Stability on storage and handling; type: physicochemical; conditions: for decomposes almost completely in solution within: in solution (such as in ethyl acetate or chlorinated solvent) even at 0° C.; for powdered solid stored without decomposition: in the refrigerator
[2] = Absorption spectra obtained in toluene at room temperature; type: physicochemical; conditions: for ΔνQy: redshift relative to the parent chlorin (ZnC or Zn—M^10), toluene; for Qy band / B/Qy band intensity ratio: toluene at room temperature; for Qy band: normalized at the B bands
Source text: (§1) Absorption Spectra. The spectral properties of interest in the chlorins include the position of the long-wavelength Qy transition, the intensity of the Qy transition, and the fluorescence quantum yield of the chlorin. The intensity of the Qy transition can be assessed by the measured molar absorption coefficient; however, comparisons of such values are somewhat unreliable given the experimental variability encountered upon handling small quantities of materials. A better comparison is achieved by examination of the ratio of the intensities of the B and Qy bands for a given compound (B/Qy ratio), which is determined simply by absorption spectroscopy without requiring determination of the molar absorption coefficient. For a wide variety of applications, bathochromic and hyperchromic shifts of the Qy band are desired (i.e., shifted to longer wavelength and intensified), thereby affording strong absorption in the deep-red region.
General. ^1H NMR (400 MHz) and ^13C NMR (75 MHz) spectra were collected at room temperature in CDCl3. Absorption spectra were obtained in toluene at room temperature. Chlorins were analyzed by laser desorption mass spectrometry (LD-MS) in the absence of a matrix. Fast atom bombardment mass spectrometry (FAB-MS) data are reported for the molecule ion or protonated molecule ion. Melting points are uncorrected. All commercially available materials were used as received. All palladium-coupling reactions were carried out using standard Schlenk-line techniques.
as §1, with “B. Absorption” for “Absorption”, “Spectroscopy.” for “Spectra.”, “increased” for “intensified), thereby affording strong absorption”, “intensity).” for “the deep-red region.”
General. ^1H NMR (400 MHz) and ^13C NMR (75 MHz) spectra were collected at room temperature in CDCl3 unless noted otherwise. Absorption spectra were obtained in toluene at room temperature. Chlorins were analyzed by laser desorption mass spectrometry (LD-MS) in the absence of a matrix. Metalation of free base chlorins was monitored by fluorescence spectroscopy. Melting points are uncorrected. All commercially available materials were used as received.

[3] = cited from earlier work; for Qy band / εQy: chlorophylls; for Qy band: FIG. 3, in diethyl ether at room temperature; for εQy: Strain and Svec (FIG. 3)
[4] = Table 1, in toluene at room temperature
[5] = Table 1, literature value, in diethyl ether
[6] = Table 3, Ref Jones et al., in diethyl ether
[7] = Table 3, zinc chlorins in toluene at room temperature
[8] = figure legends (FIG. 1, 2, 4, 5)

Compound: CCCCB(CCCC)n1c(C(=O)c2ccc(C)cc2)ccc1C(c1ccc[nH]1)c1c(C)cc(C)cc1C (stereo not drawn) [Bu2B-3, 10-(Dibutylboryl)-5-mesityl-1-p-toluoyldipyrromethane]
stability (in words) [1]: decomposes partially at room temperature

Compound: CC(=O)c1cc2[n-]c1cc1nc(cc3ccc([n-]3)c(-c3ccc(C)cc3)c3nc(c2-c2c(C)cc(C)cc2C)C=C3)C(C)(C)C1.[Cu+2] [Cu-8, Cu(II)-13-Acetyl-17,18-dihydro-10-mesityl-18,18-dimethyl-5-p-tolylporphyrin]
B/Qy intensity ratio [2, 4]: 3.1
Log ε (M^−1cm^−1) (Qy band) [2, 4]: 4.69 M^−1cm^−1
λmax (nm), B [2, 4]: 420 nm
λmax (nm), Qy [2, 4]: 631 nm

Compound: Cc1ccc(C2=c3ccc4[n]3[Zn][n]3c(cc(Br)c3C=C3CC(C)(C)C(=N3)C=4)C(c3c(C)cc(C)cc3C)=C3C=CC2=N3)cc1 [Zn-6, Zn(II)-13-Bromo-17,18-dihydro-10-mesityl-18,18-dimethyl-5-p-tolylporphyrin]
B/Qy intensity ratio [2, 4]: 4.0
Log ε (M^−1cm^−1) (Qy band) [2, 4]: 4.65 M^−1cm^−1
λmax (nm), B [2, 4]: 414 nm
λmax (nm), Qy [2, 4]: 616 nm

Compound: C=Cc1c(C)c2cc3nc(c4c5[n-]c(cc6nc(cc1[n-]2)C(C=O)=C6CC)c(C)c5C(=O)[C@@H]4C(=O)OC)[C@@H](CCC(=O)OC/C=C(\C)CCC[C@H](C)CCC[C@H](C)CCCC(C)C)[C@@H]3C.[Zn+2] [Zn-chlorophyll b]
B/Qy intensity ratio [3, 5]: 2.9
λmax (nm), B [3, 5]: 446 nm
λmax (nm), Qy [3, 5]: 634 nm
B/Qy ratio [3, 6]: 2.9
λmax (nm), B [3, 6]: 446 nm
λmax (nm), Qy [3, 6]: 634 nm

Compound: CC(=O)c1cc2[n]3c1C=C1CC(C)(C)C(=N1)C=c1cc(C#C[Si](C(C)C)(C(C)C)C(C)C)c([n]1[Zn]3)=CC1=NC(=C2)C=C1 [ZnC-E^3A^13]
ΔνQy ([2]; Table 3): 1320 cm⁻¹
B/Qy ratio [2, 7]: 1.2
λmax (nm), B [2, 7]: 428 nm
λmax (nm), Qy [2, 7]: 655 nm
Qy band [2, 8]: 655 nm
B/Qy band intensity ratio ([2]; figure legends (FIG. 4, 5)): 1.2

Compound: CC(C)[Si](C#Cc1cc2[n]3c1C=C1CC(C)(C)C(=N1)C=c1cc(C#C[Si](C(C)C)(C(C)C)C(C)C)c([n]1[Zn]3)=CC1=NC(=C2)C=C1)(C(C)C)C(C)C [ZnC-E^3E^13]
ΔνQy ([2]; Table 3): 1080 cm⁻¹
B/Qy ratio [2, 7]: 1.4
λmax (nm), B [2, 7]: 421 nm
λmax (nm), Qy [2, 7]: 645 nm
Qy band ([2]; figure legends (FIG. 4, 5)): 645

Compound: CC(=O)c1cc2[n]3c1C=C1CC(C)(C)C(=N1)C=c1cc(C#C[Si](C(C)C)(C(C)C)C(C)C)c([n]1[Zn]3)=CC1=NC(=C2c2c(C)cc(C)cc2C)C=C1 [ZnC-E^3M^10A^13, Zn(II)-13-Acetyl-3-[2-(triisopropylsilyl)ethynyl]-17,18-dihydro-10-mesityl-18,18-dimethylporphyrin]
ΔνQy ([2]; Table 3): 1160 cm⁻¹
B/Qy ratio [2, 7]: 1.5
λmax (nm), B [2, 7]: 428 nm
λmax (nm), Qy [2, 7]: 652 nm
Qy band ([2]; figure legend (FIG. 4)): 652
B/Qy band intensity ratio ([2]; figure legends (FIG. 4, 5)): 1.5

Compound: Cc1cc(C)c(C2=c3cc(C#C[Si](C(C)C)(C(C)C)C(C)C)c4[n]3[Zn][n]3c(cc(C#C[Si](C(C)C)(C(C)C)C(C)C)c3C=C3C=CC2=N3)C=C2N=C(C=4)CC2(C)C)c(C)c1 [ZnC-E^3M^10E^13, Zn(II)-3,13-Bis[2-(triisopropylsilyl)ethynyl]-17,18-dihydro-10-mesityl-18,18-dimethylporphyrin]
ΔνQy ([2]; Table 3): 1020 cm⁻¹
B/Qy ratio [2, 7]: 1.6
λmax (nm), Qy [2, 7]: 646 nm
Qy band [2, 8]: 646 nm

Compound: C=Cc1c(C)c2cc3nc(c4c5[n-]c(cc6nc(cc1[n-]2)C(C)=C6CC)c(C)c5C(=O)[C@@H]4C(=O)OC)[C@@H](CCC(=O)OC/C=C(\C)CCC[C@H](C)CCC[C@H](C)CCCC(C)C)[C@@H]3C.[Mg+2] [chlorophyll a]
B/Qy intensity ratio [3, 5]: 1.3
λmax (nm), B [3, 5]: 430 nm
λmax (nm), Qy [3, 5]: 662 nm
B band ([3]; chlorophyll a, text (FIG. 3)): 430 nm
Qy band [3]: 662 nm
εQy [3]: 86,300 M^−1cm^−1

Compound: C=Cc1c(C)c2cc3nc(c4c5[n-]c(cc6nc(cc1[n-]2)C(C=O)=C6CC)c(C)c5C(=O)[C@@H]4C(=O)OC)[C@@H](CCC(=O)OC/C=C(\C)CCC[C@H](C)CCC[C@H](C)CCCC(C)C)[C@@H]3C.[Mg+2] [chlorophyll b]
Qy band [3]: 642 nm and 644 nm
εQy [3]: 56,100 M^−1cm^−1

Compound: pheophytin a
B/Qy intensity ratio [3, 5]: 2.1
Log ε (M^−1cm^−1) (Qy band) [3, 5]: 5.12
λmax (nm), B [3, 5]: 408 nm
λmax (nm), Qy [3, 5]: 667 nm

Now from value to compound:

ΔνQy ([2]; Table 3): 680 cm⁻¹
B/Qy ratio [2, 7]: 2.2
λmax (nm), B [2, 7]: 418 nm
λmax (nm), Qy [2, 7]: 632 nm
Qy band ([2]; figure legends (FIG. 4, 5)): 632
Compound: CC(=O)c1cc2[n]3c1C=C1CC(C)(C)C(=N1)C=c1ccc([n]1[Zn]3)=CC1=NC(=C2c2c(C)cc(C)cc2C)C=C1 [ZnC-M^10A^13, Zn(II)-13-Acetyl-17,18-dihydro-10-mesityl-18,18-dimethylporphyrin]

ΔνQy ([2]; Table 3): 530 cm⁻¹
B/Qy ratio [2, 7]: 2.3
λmax (nm), B [2, 7]: 412 nm
λmax (nm), Qy [2, 7]: 626 nm
Compound: Cc1cc(C)c(C2=c3cc(C#C[Si](C(C)C)(C(C)C)C(C)C)c4[n]3[Zn][n]3c(ccc3C=C3N=C(C=4)CC3(C)C)C=C3C=CC2=N3)c(C)c1 [ZnC-M^10E^13, Zn(II)-13-[2-(Triisopropylsilyl)ethynyl]-17,18-dihydro-10-mesityl-18,18-dimethylporphyrin]

ΔνQy ([2]; Table 3): 400 cm⁻¹
B/Qy ratio [2, 7]: 3.3
λmax (nm), B [2, 7]: 413 nm
λmax (nm), Qy [2, 7]: 621 nm
Compound: C=Cc1cc2[n]3c1C=C1C=CC(=N1)C(c1c(C)cc(C)cc1C)=c1ccc([n]1[Zn]3)=CC1=NC(=C2)C(C)(C)C1 [ZnC-V^3M^10, Zn(II)-17,18-Dihydro-10-mesityl-18,18-dimethyl-3-vinylporphyrin]

decomposes almost completely in solution within [1]: 8 to 10 h
decomposed almost completely in solution within ([1]; purified compound in solution even at 0° C.): 8 to 10 h
powdered solid stable on storage without decomposition ([1]; storage at −10° C.): 1 to 2 days
Compound: Cc1ccc(C(=O)c2ccc(C(c3cc(Br)c(Br)[nH]3)c3c(C)cc(C)cc3C)[nH]2)cc1 (stereo not drawn) [compound 4, 8,9-Dibromo-5-mesityl-1-(4-methylbenzoyl)dipyrromethane]

powdered solid stored without decomposition [1]: 2-3 weeks
Compound: O=Cc1ccc(Cc2cc(Br)c(Br)[nH]2)[nH]1 [compound 14, 8,9-Dibromo-1-formyldipyrromethane]

decomposes almost completely in solution within [1]: 18 to 20 h
powdered solid stored without decomposition [1]: 5 to 7 days
Compound: Cc1cc(C)c(C(c2ccc(C=O)[nH]2)c2cc(Br)c(Br)[nH]2)c(C)c1 (stereo not drawn) [compound 16, 8,9-Dibromo-1-formyl-5-mesityldipyrromethane]

colour change from yellow to black indicating partial decomposition ([1]; neat or in solution, at room temperature): 1 to 2 days
Compound: CC(=O)CC(C)(C)C(Cc1ccc[nH]1)[N+](=O)[O-] (stereo not drawn) [compound 19, 4,4-Dimethyl-5-nitro-6-(1H-pyrrol-2-yl)hexan-2-one]

ΔνQy ([2]; Table 3): 550 cm⁻¹
B/Qy ratio [2, 7]: 2.3
λmax (nm), B [2, 7]: 416 nm
λmax (nm), Qy [2, 7]: 627 nm
Compound: Zn(II)-3-(2-(Triisopropylsilyl)ethynyl)-17,18-dihydro-10-mesityl-18,18-dimethylporphyrin [ZnC-E^3M^10]
